Data taken from patent US20230365632A1, “A GROUP OF PEPTIDE DERIVATIVE OMICSYNINS WITH ANTIVIRAL ACTIVITY AND USES THEREOF” (INSTITUTE OF MEDICINAL BIOTECHNOLOGY CHINESE ACADEMY OF …, priority 2020, published 2023).
Values after ≈ are worked out from the molar mass of the structure shown. Values joined by “and” are separate entries in the source; they are usually repeats but may differ in a detail not shown here. Identical values can stand only once. Like-named read-outs stand apart in the source and are kept apart here. *1 amine or outer side, *2 acyl side, *3 side chain or, on linkers, in order; H or OH if unused. Where a SMILES comes first, the peptide text is derived from it. [ ]: non-standard residue; d: D form. Phe(ol) = N[CH](CO)Cc1ccccc1; CO = O=C([*:1])[*:2]

Key:
[1] = system: influenza virus A/Fort Monmouth/1/47 (H1N1); assay: organism not typed; type: cell-based; details: MDCK, read-out: A/Fort Monmouth/1/47(H1N1) IC50
[2] = system: influenza virus A/wuhan/359/95 (H3N2); assay: organism not typed; type: cell-based
[3] = system: Madin-Darby canine kidney cells (MDCK)
in vitro [4] = details: human
in vitro [5] = details: dog
coronavirus HCoV-229E = assay: CPE inhibition assay against HCoV-229E in Huh7.5 cells; type: cell-based
coronavirus HCoV-OC43 = assay: qRT-PCR of HCoV-OC43 N protein mRNA in C3A cells; type: cell-based; details: 24 hours, corrected for GAPDH, read-out: IC50 for inhibitory activity of coronavirus HCoV-OC43
Huh7.5 cells = assay: 50% toxicity concentration (TC50) by CPE assay in Huh7.5 cells; details: read-out: TC50, Table 10
[6] = Human coronavirus 229E, Huh7.5, read-out: HCoV-229E IC50
[7] = MDCK, read-out: A/Wuhan/359/1995 (H3N2) IC50

CCOC(=O)C1=C[C@@H](OC(CC)CC)[C@H](NC(C)=O)[C@@H](N)C1 [Oseltamivir]
IC50 ([1]; Table 2, positive drugs): 2.01 µg/mL (≈ 6.43 µM) | IC50 ([2]; MDCK, Table 1; positive drug; read-out: A/wuhan/359/95(H3N2) IC50): 1.63 µg/mL | IC50 ([2]; MDCK, Table 3; positive drug; read-out: A/Wuhan/359/1995 (H3N2) IC50): 2.01 µg/mL | IC50 ([2]; MDCK, Table 4; positive drug; read-out: A/Wuhan/359/1995 (H3N2) IC50): 1.77 µg/mL | IC50 ([2]; MDCK; Table 2; positive drugs; read-out: A/wuhan/359/95(H3N2) IC50): 1.63 µg/mL | IC50 ([2]; MDCK; read-out: A/Wuhan/359/1995 (H3N2) IC50): 2.47 µg/mL | TC50 ([3]; Table 1, positive drug): 1260 µg/mL (≈ 4030 µM) | TC50 ([3]; Table 2, positive drugs): 1260 µg/mL (≈ 4030 µM) | TC50 ([3]; Table 3, positive drug): 577.4 µg/mL (≈ 1850 µM) | TC50 ([3]; Table 4, positive drug): >1000 µg/mL | TC50 ([3]; Table 6, 50E-C18 components and positive drugs): 577.35 µg/mL (≈ 1850 µM)

CC(C)[C@H](NC(=O)[C@H](CCCNC(=N)N)NC(=O)N[C@@H](Cc1ccccc1)C(=O)O)C(=O)N[C@H](C=O)CCCNC(=N)N [antipain, Antipain] ({Phe-CO}-Arg-Val-Arg-aldehyde)
CC50 (in vitro [4]): > 165 µM | IC50 ([2]; MDCK, Table 9; CPE method; mean ± SD, three repeats; read-out: A/Wuhan/359/1995 (H3N2) IC50): 3.16 ± 0.94 µM | CC50 (in vitro [5]): > 331 µM | IC50 (coronavirus HCoV-229E; [6]): 1.57 ± 0.46 µM

CC(C)[C@H](NC(=O)[C@H](CCCNC(=N)N)NC(=O)N[C@@H](Cc1ccccc1)C(=O)O)C(=O)N[C@H](C=O)CCCNC(=N)N [Omicsynin B4, Antipain] ({Phe-CO}-Arg-Val-Arg-aldehyde)
IC50 (coronavirus HCoV-OC43): 28.7 µM | IC50 ([2]; Table 9; CPE method; mean ± SD, three repeats; read-out: A/Wuhan/359/1995 (H3N2) IC50): 2.43 ± 0.71 µM | CC50 (Huh7.5 cells): > 165 µM | CC50 ([3]; read-out: TC50, Table 9, CPE method): > 331 µM | IC50 (coronavirus HCoV-229E; Table 10, Huh7.5 cells, 100 TCID50, read-out: HCoV-229E IC50): 0.89 ± 0.22 µM

NC(=O)c1ncn([C@@H]2O[C@H](CO)[C@@H](O)[C@H]2O)n1 [RBV, ribavirin]
CC50 (in vitro [4]): > 410 µM | IC50 [1]: 0.82 µg/mL (≈ 3.36 µM) | IC50 [2, 7]: 2.47 µg/mL and 13.2 µM | IC50 ([2]; MDCK, read-out: A/wuhan/359/95(H3N2) IC50): 1.63 µg/mL | CC50 (in vitro [5]): > 819 µM | IC50 (coronavirus HCoV-229E; [6]): 25.1 ± 6.1 µM

CC(C)C(NC(=O)C(CCCNC(=N)N)NC(=O)NC(Cc1ccccc1)C(=O)O)C(=O)NC(CO)Cc1ccccc1 (stereo not drawn) [Omicsynin A3, Chymostatinol A] ({Phe-CO}-Arg-Val-[Phe(ol)]; configuration not given here)
CC50 (in vitro [4]): > 168 µM | IC50 [2, 7]: 87.9 ± 23.7 µM | CC50 (in vitro [5]): > 336 µM | IC50 (coronavirus HCoV-229E; [6]): 57.4 ± 15.6 µM

CC(C)C[C@H](NC(=O)[C@@H](NC(=O)N[C@@H](Cc1ccccc1)C(=O)O)[C@@H]1CCN=C(N)N1)C(=O)N[C@H](C=O)Cc1ccccc1 [chymostatin, Chymostatin]
CC50 (in vitro [4]): > 165 µM | IC50 [2, 7]: 329 µM | CC50 (in vitro [5]): > 329 µM | IC50 (coronavirus HCoV-229E; [6]): 23.7 ± 5.66 µM

CCOC(=O)C1=C[C@@H](OC(CC)CC)[C@H](NC(C)=O)[C@@H](N)C1 [Oseltamivir Phosphate]
IC50 ([2]; MDCK, Table 5; HP20 eluates and positive drugs; read-out: A/Wuhan/359/1995 (H3N2) IC50): 2.01 µg/mL | TC50 ([3]; Table 5, HP20 eluates and positive drugs): 577.35 µg/mL
